Measured values from patent publication US9249129B2, “Morpholino substituted urea derivatives as mTOR inhibitors” (CELLZOME LIMITED, priority 2010, dated 2016).

Experiments:
Experiment in all cases: kinobeads assay with mass spectrometry detection of kinases (kinase selectivity profile)
Assay type in all cases: binding
[1] = target: T1, kinases (kinome) (Homo sapiens, UniProt O15530); conditions: PDK1 (AGC), IPI00002538
T1 construct: determined in kinobeads assays with mass spectrometry detection of kinases as described previously; endogenous in cells; host or cells: cell lysate
T1 sequence (O15530 1-556): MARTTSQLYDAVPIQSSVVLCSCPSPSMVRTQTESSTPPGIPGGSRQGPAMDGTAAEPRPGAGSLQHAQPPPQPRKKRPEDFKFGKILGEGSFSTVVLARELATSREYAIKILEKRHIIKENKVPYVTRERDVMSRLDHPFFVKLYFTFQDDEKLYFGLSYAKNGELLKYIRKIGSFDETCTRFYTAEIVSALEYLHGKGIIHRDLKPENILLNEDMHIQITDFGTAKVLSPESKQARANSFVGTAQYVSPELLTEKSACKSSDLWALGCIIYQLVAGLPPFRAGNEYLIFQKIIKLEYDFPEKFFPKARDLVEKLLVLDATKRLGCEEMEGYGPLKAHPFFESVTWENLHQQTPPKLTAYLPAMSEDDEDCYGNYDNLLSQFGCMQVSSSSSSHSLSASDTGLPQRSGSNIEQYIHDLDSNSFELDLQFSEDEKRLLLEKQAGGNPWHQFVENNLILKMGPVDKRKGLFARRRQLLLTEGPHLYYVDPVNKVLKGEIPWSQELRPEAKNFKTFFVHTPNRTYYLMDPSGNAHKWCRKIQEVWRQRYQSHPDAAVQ
Excerpt: (§1) The protein kinase complement of the human genome (the kinome) was described previously (Manning et al., 2002. Science 298(5600):1912-1934). Sequence accession numbers are defined by the International Protein Index (IPI) (Kersey et al., 2004. Proteomics 4(7):1985-1988).

[2] = target: T2, kinases (kinome) (Homo sapiens, UniProt O43353); conditions: RIPK2 (TKL), IPI00021917
T2 construct: determined in kinobeads assays with mass spectrometry detection of kinases as described previously; endogenous in cells; host or cells: cell lysate
T2 sequence (O43353 whole entry): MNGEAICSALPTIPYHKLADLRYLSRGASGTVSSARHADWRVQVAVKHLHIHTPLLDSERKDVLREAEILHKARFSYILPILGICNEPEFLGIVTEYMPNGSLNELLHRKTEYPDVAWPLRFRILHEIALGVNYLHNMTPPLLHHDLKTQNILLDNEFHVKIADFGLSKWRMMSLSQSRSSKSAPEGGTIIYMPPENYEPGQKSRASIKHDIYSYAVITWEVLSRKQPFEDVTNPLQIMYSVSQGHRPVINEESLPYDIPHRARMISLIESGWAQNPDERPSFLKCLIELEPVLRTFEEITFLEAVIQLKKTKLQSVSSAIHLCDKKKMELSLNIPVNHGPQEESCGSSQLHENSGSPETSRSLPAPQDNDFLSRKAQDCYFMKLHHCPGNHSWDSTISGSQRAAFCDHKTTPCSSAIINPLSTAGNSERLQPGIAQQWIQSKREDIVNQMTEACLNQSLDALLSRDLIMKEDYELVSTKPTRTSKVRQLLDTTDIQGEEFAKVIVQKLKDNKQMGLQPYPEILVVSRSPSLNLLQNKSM
Excerpt: as §1

[3] = target: T3, kinases (kinome) (Homo sapiens, UniProt P06239); conditions: LCK (TK), IPI00515097
T3 construct: determined in kinobeads assays with mass spectrometry detection of kinases as described previously; endogenous in cells; host or cells: cell lysate
T3 sequence (P06239 whole entry): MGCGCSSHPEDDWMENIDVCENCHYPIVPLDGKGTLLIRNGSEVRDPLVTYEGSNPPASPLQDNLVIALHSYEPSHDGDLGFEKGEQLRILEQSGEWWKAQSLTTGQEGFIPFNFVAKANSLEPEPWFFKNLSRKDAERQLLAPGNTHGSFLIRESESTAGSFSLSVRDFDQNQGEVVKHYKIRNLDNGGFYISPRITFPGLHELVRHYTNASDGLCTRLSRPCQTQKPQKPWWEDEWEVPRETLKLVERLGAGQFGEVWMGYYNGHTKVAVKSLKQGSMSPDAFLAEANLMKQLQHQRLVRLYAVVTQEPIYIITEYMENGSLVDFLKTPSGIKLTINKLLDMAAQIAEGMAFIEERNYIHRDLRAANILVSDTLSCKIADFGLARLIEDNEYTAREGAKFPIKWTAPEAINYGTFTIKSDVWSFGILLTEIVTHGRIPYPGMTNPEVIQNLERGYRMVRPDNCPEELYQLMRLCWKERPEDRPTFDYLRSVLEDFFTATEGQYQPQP
Excerpt: as §1

[4] = target: T4, kinases (kinome) (Homo sapiens, UniProt P29597); conditions: TYK2 (TK), IPI00022353
T4 construct: determined in kinobeads assays with mass spectrometry detection of kinases as described previously; endogenous in cells; host or cells: cell lysate
T4 sequence (P29597 whole entry): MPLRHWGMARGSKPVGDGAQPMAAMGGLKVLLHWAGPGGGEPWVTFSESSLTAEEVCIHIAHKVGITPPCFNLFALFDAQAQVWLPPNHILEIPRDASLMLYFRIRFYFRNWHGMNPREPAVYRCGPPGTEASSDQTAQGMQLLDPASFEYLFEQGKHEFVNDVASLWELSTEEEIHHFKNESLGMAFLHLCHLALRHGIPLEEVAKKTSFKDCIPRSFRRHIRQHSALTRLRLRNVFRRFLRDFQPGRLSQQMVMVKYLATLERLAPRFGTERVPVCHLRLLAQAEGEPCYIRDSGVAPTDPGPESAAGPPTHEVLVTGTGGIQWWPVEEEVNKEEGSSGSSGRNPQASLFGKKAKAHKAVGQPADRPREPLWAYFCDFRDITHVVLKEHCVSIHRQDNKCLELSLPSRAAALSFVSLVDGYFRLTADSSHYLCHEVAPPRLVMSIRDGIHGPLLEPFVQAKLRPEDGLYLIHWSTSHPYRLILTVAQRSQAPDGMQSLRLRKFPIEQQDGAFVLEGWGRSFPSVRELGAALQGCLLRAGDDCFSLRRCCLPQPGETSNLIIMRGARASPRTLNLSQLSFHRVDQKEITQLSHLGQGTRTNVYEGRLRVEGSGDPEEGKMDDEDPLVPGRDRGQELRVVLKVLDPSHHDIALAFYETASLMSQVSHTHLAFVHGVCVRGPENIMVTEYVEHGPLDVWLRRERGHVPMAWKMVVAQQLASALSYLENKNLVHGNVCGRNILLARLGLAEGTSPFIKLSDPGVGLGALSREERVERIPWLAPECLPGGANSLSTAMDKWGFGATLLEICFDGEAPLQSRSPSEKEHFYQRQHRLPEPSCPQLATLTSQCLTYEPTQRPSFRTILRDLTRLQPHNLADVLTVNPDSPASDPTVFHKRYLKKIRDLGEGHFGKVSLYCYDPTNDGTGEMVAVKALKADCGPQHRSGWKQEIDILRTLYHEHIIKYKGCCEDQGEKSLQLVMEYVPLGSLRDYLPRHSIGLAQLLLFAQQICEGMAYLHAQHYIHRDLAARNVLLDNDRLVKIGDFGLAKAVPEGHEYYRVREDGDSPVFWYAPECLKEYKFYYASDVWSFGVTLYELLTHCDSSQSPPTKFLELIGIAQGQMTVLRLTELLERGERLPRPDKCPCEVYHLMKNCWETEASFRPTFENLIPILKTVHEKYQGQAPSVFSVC
Excerpt: as §1

[5] = target: T5, kinases (kinome) (Homo sapiens, UniProt P48730); conditions: CK1d (CK1), IPI00011102
T5 construct: determined in kinobeads assays with mass spectrometry detection of kinases as described previously; endogenous in cells; host or cells: cell lysate
T5 sequence (P48730 whole entry): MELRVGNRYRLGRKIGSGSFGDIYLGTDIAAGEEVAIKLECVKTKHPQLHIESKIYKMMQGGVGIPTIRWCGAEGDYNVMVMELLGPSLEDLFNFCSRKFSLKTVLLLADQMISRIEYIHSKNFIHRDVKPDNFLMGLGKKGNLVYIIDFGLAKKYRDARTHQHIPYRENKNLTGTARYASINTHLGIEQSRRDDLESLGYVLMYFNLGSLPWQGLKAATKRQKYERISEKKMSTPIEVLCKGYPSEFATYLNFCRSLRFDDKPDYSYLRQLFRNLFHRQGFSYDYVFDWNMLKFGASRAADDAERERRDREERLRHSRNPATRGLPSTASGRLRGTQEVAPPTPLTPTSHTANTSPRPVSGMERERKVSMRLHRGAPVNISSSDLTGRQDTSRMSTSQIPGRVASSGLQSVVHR
Excerpt: as §1

[6] = target: T6, kinases (kinome) (Homo sapiens, UniProt Q12851); conditions: GCK (STE), IPI00149094
T6 construct: determined in kinobeads assays with mass spectrometry detection of kinases as described previously; endogenous in cells; host or cells: cell lysate
T6 sequence (Q12851 1-820): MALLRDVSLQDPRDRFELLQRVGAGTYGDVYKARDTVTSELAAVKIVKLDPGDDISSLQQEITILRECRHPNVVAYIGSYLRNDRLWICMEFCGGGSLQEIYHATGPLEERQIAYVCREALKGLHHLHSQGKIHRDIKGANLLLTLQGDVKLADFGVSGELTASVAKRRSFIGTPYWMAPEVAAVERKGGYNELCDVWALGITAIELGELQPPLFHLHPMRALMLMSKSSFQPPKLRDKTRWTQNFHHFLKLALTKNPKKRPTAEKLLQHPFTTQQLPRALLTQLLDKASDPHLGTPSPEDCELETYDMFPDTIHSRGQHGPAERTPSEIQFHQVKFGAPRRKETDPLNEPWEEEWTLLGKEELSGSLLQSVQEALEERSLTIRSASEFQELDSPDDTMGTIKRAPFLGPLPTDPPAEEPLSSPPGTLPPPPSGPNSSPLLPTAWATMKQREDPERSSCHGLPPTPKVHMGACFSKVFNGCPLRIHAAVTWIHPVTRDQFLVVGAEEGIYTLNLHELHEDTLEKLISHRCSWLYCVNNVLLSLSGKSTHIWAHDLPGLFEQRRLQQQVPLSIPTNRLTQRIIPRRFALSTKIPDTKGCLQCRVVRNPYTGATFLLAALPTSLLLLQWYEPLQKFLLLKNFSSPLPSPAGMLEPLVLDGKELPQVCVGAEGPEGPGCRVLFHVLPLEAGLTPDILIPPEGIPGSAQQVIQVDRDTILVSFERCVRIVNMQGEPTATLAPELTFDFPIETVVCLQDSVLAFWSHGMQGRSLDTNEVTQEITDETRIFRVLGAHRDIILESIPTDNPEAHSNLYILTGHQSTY
Excerpt: as §1

[7] = target: T7, kinases (kinome) (Homo sapiens, UniProt Q13163); conditions: MAP2K5 (STE), IPI00158248
T7 construct: determined in kinobeads assays with mass spectrometry detection of kinases as described previously; endogenous in cells; host or cells: cell lysate
T7 sequence (Q13163 1-448): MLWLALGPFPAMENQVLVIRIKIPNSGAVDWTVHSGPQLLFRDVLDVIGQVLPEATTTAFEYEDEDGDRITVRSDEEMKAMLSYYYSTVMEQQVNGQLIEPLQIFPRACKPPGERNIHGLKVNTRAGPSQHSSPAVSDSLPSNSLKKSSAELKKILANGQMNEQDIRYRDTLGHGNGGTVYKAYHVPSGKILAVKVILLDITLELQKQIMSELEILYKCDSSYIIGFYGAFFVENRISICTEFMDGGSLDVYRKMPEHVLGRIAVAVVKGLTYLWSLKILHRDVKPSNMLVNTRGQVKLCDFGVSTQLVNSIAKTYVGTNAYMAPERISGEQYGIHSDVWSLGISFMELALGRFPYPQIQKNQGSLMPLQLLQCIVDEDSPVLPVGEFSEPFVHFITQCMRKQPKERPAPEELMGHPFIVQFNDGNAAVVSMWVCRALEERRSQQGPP
Excerpt: as §1

[8] = target: T8, kinases (kinome) (Homo sapiens, UniProt Q13555); conditions: CaMK2g (CAMK), IPI00908444
T8 construct: determined in kinobeads assays with mass spectrometry detection of kinases as described previously; endogenous in cells; host or cells: cell lysate
T8 sequence (Q13555 whole entry): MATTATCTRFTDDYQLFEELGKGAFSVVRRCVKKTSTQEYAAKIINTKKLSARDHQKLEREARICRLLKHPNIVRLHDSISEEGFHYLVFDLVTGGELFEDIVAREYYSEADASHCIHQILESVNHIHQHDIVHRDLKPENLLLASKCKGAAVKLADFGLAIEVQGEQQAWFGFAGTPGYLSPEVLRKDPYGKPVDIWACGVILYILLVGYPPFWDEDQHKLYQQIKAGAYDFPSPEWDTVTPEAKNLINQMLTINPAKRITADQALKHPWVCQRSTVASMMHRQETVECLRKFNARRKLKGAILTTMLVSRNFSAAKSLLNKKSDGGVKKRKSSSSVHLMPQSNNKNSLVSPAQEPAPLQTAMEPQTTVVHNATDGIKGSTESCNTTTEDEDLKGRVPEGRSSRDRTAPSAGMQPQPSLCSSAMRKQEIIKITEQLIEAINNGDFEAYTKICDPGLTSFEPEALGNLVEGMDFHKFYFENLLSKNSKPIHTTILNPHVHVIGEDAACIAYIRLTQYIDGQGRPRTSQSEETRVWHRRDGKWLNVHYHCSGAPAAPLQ
Excerpt: as §1

[9] = target: T9, kinases (kinome) (Homo sapiens, UniProt Q7KZI7); conditions: MARK2 (CAMK), IPI00555838
T9 construct: determined in kinobeads assays with mass spectrometry detection of kinases as described previously; endogenous in cells; host or cells: cell lysate
T9 sequence (Q7KZI7 whole entry): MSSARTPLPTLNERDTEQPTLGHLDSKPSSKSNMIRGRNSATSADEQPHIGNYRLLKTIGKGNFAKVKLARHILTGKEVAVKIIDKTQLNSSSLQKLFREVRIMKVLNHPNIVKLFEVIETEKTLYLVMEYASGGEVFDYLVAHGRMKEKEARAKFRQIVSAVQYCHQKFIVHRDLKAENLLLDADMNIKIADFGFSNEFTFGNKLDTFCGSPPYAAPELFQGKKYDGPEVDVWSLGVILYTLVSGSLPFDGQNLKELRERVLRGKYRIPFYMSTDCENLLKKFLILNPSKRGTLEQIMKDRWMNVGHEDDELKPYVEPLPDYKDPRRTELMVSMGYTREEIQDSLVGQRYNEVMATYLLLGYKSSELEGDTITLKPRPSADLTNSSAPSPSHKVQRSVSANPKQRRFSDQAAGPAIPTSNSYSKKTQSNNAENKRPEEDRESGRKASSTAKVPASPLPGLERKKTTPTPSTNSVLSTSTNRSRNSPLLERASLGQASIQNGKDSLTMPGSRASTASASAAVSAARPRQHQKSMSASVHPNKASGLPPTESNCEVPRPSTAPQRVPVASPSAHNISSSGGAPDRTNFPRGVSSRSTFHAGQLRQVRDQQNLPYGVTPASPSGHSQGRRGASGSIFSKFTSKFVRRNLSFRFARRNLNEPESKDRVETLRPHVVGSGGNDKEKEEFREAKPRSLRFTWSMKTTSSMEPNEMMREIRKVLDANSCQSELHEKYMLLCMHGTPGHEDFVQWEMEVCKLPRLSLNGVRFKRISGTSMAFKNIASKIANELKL
Excerpt: as §1

[10] = target: T10, kinases (kinome) (Homo sapiens, UniProt Q8TCG2); conditions: PIK4C2B (Lipid Kinase), IPI00291068
T10 construct: determined in kinobeads assays with mass spectrometry detection of kinases as described previously; endogenous in cells; host or cells: cell lysate
T10 sequence (Q8TCG2 whole entry): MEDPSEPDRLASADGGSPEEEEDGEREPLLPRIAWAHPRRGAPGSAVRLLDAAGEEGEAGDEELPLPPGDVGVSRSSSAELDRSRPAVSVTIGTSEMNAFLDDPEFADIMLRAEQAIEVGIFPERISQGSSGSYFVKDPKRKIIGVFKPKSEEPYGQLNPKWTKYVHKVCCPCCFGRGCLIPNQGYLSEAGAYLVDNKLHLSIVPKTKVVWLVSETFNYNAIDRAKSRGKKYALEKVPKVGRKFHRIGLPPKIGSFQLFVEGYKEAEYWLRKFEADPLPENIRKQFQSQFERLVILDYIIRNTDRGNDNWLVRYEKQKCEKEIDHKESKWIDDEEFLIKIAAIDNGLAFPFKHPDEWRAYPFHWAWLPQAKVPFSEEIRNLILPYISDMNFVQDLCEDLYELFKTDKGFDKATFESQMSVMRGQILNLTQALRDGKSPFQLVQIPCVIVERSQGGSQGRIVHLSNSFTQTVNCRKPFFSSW
Excerpt: as §1

Measured: IC50

C[C@H]1COCCN1c1nc(-c2ccc(NC(=O)NC3CC3)cc2)cc(-c2cccnc2S(C)(=O)=O)n1 [Example 46, (S)-1-cyclopropyl-3-(4-(2-(3-methylmorpholino)-6-(2-(methylsulfonyl)pyridin-3-yl)pyrimidin-4-yl)phenyl)urea]
> 10 µM: all assays above

C[C@H]1COCCN1c1nc(-c2ccc(NC(=O)NC3CC3)cc2)cc(-c2ccccc2S(C)(=O)=O)n1 [Example 4, (S)-1-cyclopropyl-3-(4-(2-(3-methylmorpholino)-6-(2-(methylsulfonyl)phenyl)pyrimidin-4-yl)phenyl)urea]
> 10 µM: all assays above

C[C@H]1COCCN1c1nc(-c2ccc(NC(=O)N[C@H]3CCC[C@@H]3O)cc2)cc(-c2cc(F)ccc2S(C)(=O)=O)n1 [Example 76, 1-(4-(6-(5-fluoro-2-(methylsulfonyl)phenyl)-2-((S)-3-methylmorpholino)pyrimidin-4-yl)phenyl)-3-((1S,2S)-2-hydroxycyclopentyl)urea]
not listed: [5]
> 10 µM: all other assays above

CCNC(=O)Nc1ccc(-c2cc(-c3ccccc3C#N)nc(N3CCOC[C@@H]3C)n2)cc1 [Example 8, (S)-1-(4-(6-(2-cyanophenyl)-2-(3-methylmorpholino)pyrimidin-4-yl)phenyl)-3-ethylurea]
not listed: [3]
> 10 µM: all other assays above

C[C@H]1COCCN1c1cc(-c2ccccc2S(C)(=O)=O)nc(-c2ccc(NC(=O)NC3CC3)cc2)n1 [Example 6, (S)-1-cyclopropyl-3-(4-(4-(3-methylmorpholino)-6-(2-(methylsulfonyl)phenyl)pyrimidin-2-yl)phenyl)urea]
> 10 µM: all assays above

C[C@H]1COCCN1c1cc(-c2ccccn2)nc(-c2ccc(NC(=O)NCCO)cc2)n1 [Example 43, (S)-1-(2-hydroxyethyl)-3-(4-(4-(3-methylmorpholino)-6-(pyridin-2-yl)pyrimidin-2-yl)phenyl)urea]
> 10 µM: all assays above

C[C@H]1COCCN1c1nc(-c2ccc(NC(=O)NC3CC3)cc2)cc(-c2cc(F)ccc2S(C)(=O)=O)n1 [Example 40, (S)-1-cyclopropyl-3-(4-(6-(5-fluoro-2-(methylsulfonyl)phenyl)-2-(3-methylmorpholino)pyrimidin-4-yl)phenyl)urea]
> 10 µM: all assays above
